Measured values published in patent US10858335B2 (Rigel Pharmaceuticals, Inc., priority 2014, dated 2020).

Tested on: GDF8 signaling (p-SMAD-3 (Ser423/425))
Assay: AlphaScreen SureFire SMAD3 (p-Ser423/425) assay, GDF8-stimulated cells (GDF pSMAD)
Type: cell-based
Conditions: Mus musculus, MPC-11, GDF8-stimulated pSMAD3, MPC11; tested as the salt form given; read-out: GDF pSMAD (MPC11) (μM), inhibition of GDF8 signaling

Point of comparison: Cc1cnc(-c2ccc(F)c(Cl)c2)c(-c2ccc3ncnc(N)c3c2)c1 [compound 990, 6-(2-(3-chloro-4-fluorophenyl)-5-methylpyridin-3-yl)quinazolin-4-amine], IC50 0.285 µM. Against it:
- Fc1cc(-c2ncccc2-c2ccn3nccc3n2)c(F)c(F)c1F [compound 1053] — within 1.5-fold, 0.368 µM
- COc1cc(-c2ncccc2-c2ccc3ncnc(N)c3c2)c(C)cc1F [compound 1022, 6-(2-(4-fluoro-5-methoxy-2-methylphenyl)pyridin-3-yl)quinazolin-4-amine] — 48-fold higher, 13.7 µM

Same assay, conditions: Mus musculus, MPC-11, MPC11; GDF8-stimulated; p-SMAD3 AlphaScreen; read-out: GDF pSMAD (MPC11) (inhibition of GDF8 signaling)

Point of comparison: Cc1cc(-c2ncc(NC3CCCCC3O)cc2-c2ccc3nccnc3c2)ccc1F (centres unmarked) [compound 243, 2-((6-(4-Fluoro-3-methylphenyl)-5-(quinoxalin-6-yl)pyridin-3-yl)amino)cyclohexan-1-ol], IC50 11.9 µM. Against it:
- Cc1cc(-c2ncc(NCc3cncs3)cc2-c2ccc3ncsc3c2)ccc1F [compound 327, 5-(Benzo[d]thiazol-6-yl)-6-(4-fluoro-3-methylphenyl)-N-(thiazol-5-ylmethyl)pyridin-3-amine] — 37-fold lower, 0.323 µM
- Cc1cc(-c2ncccc2-c2ccnc(Nc3ccc(N4CCOCC4)cc3)n2)ccc1F [compound 904, 4-(2-(4-Fluoro-3-methylphenyl)pyridin-3-yl)-N-(4-morpholinophenyl)pyrimidin-2-amine] — within 1.5-fold, 9.07 µM
- O=C(NCCCN1CCCC1=O)c1cnc2ccc(-c3cccnc3-c3ccc(F)c(Cl)c3)cn12 [compound 727, 6-(2-(3-Chloro-4-fluorophenyl)pyridin-3-yl)-N-(3-(2-oxopyrrolidin-1-yl)propyl)imidazo[1,2-a]pyridine-3-carboxamide] — 13-fold lower, 0.886 µM
- Cc1cc(-c2ncc(NCc3cccc(O)c3)cc2-c2ccc3ncsc3c2)ccc1F [compound 332, 3-(((5-(Benzo[d]thiazol-6-yl)-6-(4-fluoro-3-methylphenyl)pyridin-3-yl)amino)methyl)phenol] — 38-fold lower, 0.311 µM
- Cc1cc(-c2ncccc2-c2ccc3ncn(CCCN4CCOCC4)c3c2)ccc1F [compound 252, 4-(3-(6-(2-(4-fluoro-3-methylphenyl)pyridin-3-yl)-1H-benzo[d]imidazol-1-yl)propyl)morpholine] — within 1.5-fold, 12.7 µM
- Cc1cc(-c2ncc(NCc3ccc(CN4CCOCC4)cc3)cc2-c2ccc3ncsc3c2)ccc1F [compound 358, 5-(Benzo[d]thiazol-6-yl)-6-(4-fluoro-3-methylphenyl)-N-(4-(morpholinomethyl)benzyl)pyridin-3-amine] — 14-fold lower, 0.863 µM
- Cc1cc(-c2ncccc2-c2ccc3ncc(C(=O)NC4CC5CCC(C4)N5C)n3c2)ccc1F (racemic) [compound 711, rac-6-(2-(4-Fluoro-3-methylphenyl)pyridin-3-yl)-N-(8-methyl-8-azabicyclo[3.2.1]octan-3-yl)imidazo[1,2-a]pyridine-3-carboxamide] — within 1.5-fold, 9.28 µM
- Cc1cc(-c2ncccc2-c2ccc3ncc(C(=O)NC4CCN(C)CC4)n3c2)ccc1F [compound 592, 6-(2-(4-Fluoro-3-methylphenyl)pyridin-3-yl)-N-(1-methylpiperidin-4-yl)imidazo[1,2-a]pyridine-3-carboxamide] — 58-fold lower, 0.205 µM
- Clc1ccc(Cl)c(-c2ncccc2-c2ccn3nccc3n2)c1 [compound 920, 5-(2-(2,5-Dichlorophenyl)pyridin-3-yl)pyrazolo[1,5-a]pyrimidine] — 44-fold lower, 0.272 µM
- Fc1ccc(-c2ncccc2-c2ccc3[nH]ncc3c2)c(F)c1 [Compound 70, 5-[2-(2,4-Difluorophenyl)pyridin-3-yl]-1H-indazole] — 2.1-fold lower, 5.7 µM
- COc1cccc(-c2ncccc2-c2ccc3nccn3c2)c1 [Compound 52, 6-(2-(3-Methoxyphenyl)pyridin-3-yl)imidazo[1,2-a]pyridine] — 8.5-fold lower, 1.4 µM
- Cc1cc(-c2ncccc2-c2ccc3ncc(C(=O)NCCN(C)C)n3c2)ccc1F [compound 607, N-(2-(Dimethylamino)ethyl)-6-(2-(4-fluoro-3-methylphenyl)pyridin-3-yl)imidazo[1,2-a]pyridine-3-carboxamide] — 17-fold lower, 0.705 µM
- Cc1cnc2ccc(-c3cccnc3-c3cccc(Cl)c3)cn12 [compound 765, 6-(2-(3-Chlorophenyl)pyridin-3-yl)-3-methylimidazo[1,2-a]pyridine] — 120-fold lower, 0.096 µM
- N#Cc1cnc2ccc(-c3cccnc3-c3cccc(Cl)c3)cn12 [compound 697, 6-(2-(3-Chlorophenyl)pyridin-3-yl)imidazo[1,2-a]pyridine-3-carbonitrile] — 29-fold lower, 0.415 µM
- Cc1cc(-c2ncccc2-c2ccc3ncnc(OCCCN(C)C)c3c2)ccc1F [compound 429, 3-((6-(2-(4-Fluoro-3-methylphenyl)pyridin-3-yl)quinazolin-4-yl)oxy)-N,N-dimethylpropan-1-amine] — 31-fold lower, 0.384 µM
- Clc1ccc(Cl)c(-c2ncccc2-c2ccc3nc[nH]c3c2)c1 [compound 871, 6-(2-(2,5-Dichlorophenyl)pyridin-3-yl)-1H-benzo[d]imidazole] — 6.5-fold lower, 1.83 µM
- Nc1ncnc2ccc(-c3cccnc3-c3cc(Cl)ccc3Cl)cc12 [compound 501, 6-(2-(2,5-Dichlorophenyl)pyridin-3-yl)quinazolin-4-amine] — 34-fold lower, 0.355 µM
- Cc1cccc(-c2ncccc2-c2ccc3nccnc3c2)c1 [compound 540, 6-(2-(m-Tolyl)pyridin-3-yl)quinoxaline] — 28-fold lower, 0.426 µM
- Cc1cc(-c2ncccc2-c2ccc3ncc(C(=O)NCCCN4CCCCC4)n3c2)ccc1F [compound 611, 6-(2-(4-Fluoro-3-methylphenyl)pyridin-3-yl)-N-(3-(piperidin-1-yl)propyl)imidazo[1,2-a]pyridine-3-carboxamide] — 100-fold lower, 0.114 µM
- Cc1cc(-c2ncc(NC3CC3)cc2-c2ccc3[nH]ncc3c2)ccc1F [compound 212, N-Cyclopropyl-6-(4-fluoro-3-methylphenyl)-5-(1H-indazol-5-yl)pyridin-3-amine] — 1.5-fold higher, 18.4 µM
- Fc1ccc(-c2ncccc2-c2ccc3[nH]ncc3c2)cc1C1CC1 [compound 211, 5-(2-(3-Cyclopropyl-4-fluorophenyl)pyridin-3-yl)-1H-indazole] — 60-fold lower, 0.198 µM
- Cc1cc(-c2ncc(COCC(=O)N(C)C)cc2-c2ccc3nccnc3c2)ccc1F [compound 231, 2-((6-(4-Fluoro-3-methylphenyl)-5-(quinoxalin-6-yl)pyridin-3-yl)methoxy)-N,N-dimethylacetamide] — within 1.5-fold, 10.8 µM
- Cc1cc(-c2ncccc2-c2ccc3[nH]ncc3c2)ccc1F [Compound 63, 5-(2-(4-Fluoro-3-methylphenyl)pyridin-3-yl)-1H-indazole] — 84-fold lower, 0.142 µM
- CCn1cnc2ccc(-c3cccnc3-c3cccc(C)c3)cc21 [Compound 43, 1-Ethyl-6-(2-m-tolylpyridin-3-yl)-1H-benzo[d]imidazole] — 7.3-fold lower, 1.62 µM
- Fc1ccc(-c2ncccc2-c2ccc3ncnn3c2)cc1C1CC1 [compound 217, 6-(2-(3-Cyclopropyl-4-fluorophenyl)pyridin-3-yl)-[1,2,4]triazolo[1,5-a]pyridine] — 14-fold lower, 0.841 µM
- Cc1cc(-c2ncc(NCc3cnc4ccccc4c3)cc2-c2ccc3ncsc3c2)ccc1F [compound 339, 5-(Benzo[d]thiazol-6-yl)-6-(4-fluoro-3-methylphenyl)-N-(quinolin-3-ylmethyl)pyridin-3-amine] — 20-fold lower, 0.59 µM
- Cc1cc(-c2ncccc2-c2ccc3ncn(C(C)C)c3c2)ccc1F [Compound 48, 6-(2-(4-Fluoro-3-methylphenyl)pyridin-3-yl)-1-isopropyl-1H-benzo[d]imidazole] — within 1.5-fold, 8.38 µM
- Cc1cc(C)cc(-c2ncccc2-c2ccc3[nH]ncc3c2)c1 [Compound 71, 5-[2-(3,5-Dimethylphenyl)pyridin-3-yl]-1H-indazole] — 1.7-fold lower, 7.01 µM
- Fc1cc(Cl)cc(-c2ncccc2-c2ccc3ncnn3c2)c1 [compound 770, 6-(2-(3-Chloro-5-fluorophenyl)pyridin-3-yl)-[1,2,4]triazolo[1,5-a]pyridine] — 9.1-fold lower, 1.31 µM
- Cc1cccc(-c2ncc(N)cc2-c2ccc3ncsc3c2)c1 [Compound 20, 5-(Benzo[d]thiazol-6-yl)-6-m-tolylpyridin-3-amine] — 110-fold lower, 0.104 µM
- COc1cc(-c2ncccc2-c2ccc3ncnc(N)c3c2)c(F)cc1F [compound 502, 6-(2-(2,4-Difluoro-5-methoxyphenyl)pyridin-3-yl)quinazolin-4-amine] — 21-fold lower, 0.563 µM
- Cc1cccc(-c2ncccc2-c2ccc3ncoc3c2)c1 [Compound 181, 6-(2-m-Tolylpyridin-3-yl)benzo[d]oxazole] — 22-fold lower, 0.539 µM
- Fc1ccc(-c2ncccc2-c2ccc3cn[nH]c3c2)cc1 [Compound 101, 6-(2-(4-Fluorophenyl)pyridin-3-yl)-1H-indazole] — within 1.5-fold, 11.2 µM
- Fc1cc(F)c(-c2ncccc2-c2ccc3ncsc3c2)cc1F [compound 693, 6-(2-(2,4,5-Trifluorophenyl)pyridin-3-yl)benzo[d]thiazole] — 23-fold lower, 0.507 µM
- COc1cnc(-c2cc(Cl)c(F)cc2F)c(-c2ccn3ncnc3c2)c1 [compound 857, 7-(2-(5-Chloro-2,4-difluorophenyl)-5-methoxypyridin-3-yl)-[1,2,4]triazolo[1,5-a]pyridine] — 6.4-fold lower, 1.85 µM
- Cc1cc(-c2ncccc2-c2ccc3ncc(C(=O)NCCCn4ccnc4)n3c2)ccc1F [compound 653, N-(3-(1H-Imidazol-1-yl)propyl)-6-(2-(4-fluoro-3-methylphenyl)pyridin-3-yl)imidazo[1,2-a]pyridine-3-carboxamide] — 11-fold lower, 1.04 µM
- Cc1cccc(-c2ncccc2-c2ccc3ncc(C#N)n3c2)c1 [compound 558, 6-(2-(m-Tolyl)pyridin-3-yl)imidazo[1,2-a]pyridine-3-carbonitrile] — 63-fold lower, 0.188 µM
- c1cnc(-c2ccc3[nH]ncc3c2)c(-c2ccc3[nH]ncc3c2)c1 [Compound 64, 5-(3-(1H-Indazol-5-yl)pyridin-2-yl)-1H-indazole] — 14-fold lower, 0.84 µM
- Cc1cc(-c2ncccc2-c2ccc3ncc(C(=O)NC4CC(C)(C)N(C)C(C)(C)C4)n3c2)ccc1F [compound 702, 6-(2-(4-Fluoro-3-methylphenyl)pyridin-3-yl)-N-(1,2,2,6,6-pentamethylpiperidin-4-yl)imidazo[1,2-a]pyridine-3-carboxamide] — 13-fold lower, 0.882 µM
- Fc1ccccc1-c1ncccc1-c1ccc2[nH]ncc2c1 [Compound 61, 5-(2-(2-Fluorophenyl)pyridin-3-yl)-1H-indazole] — 3.1-fold lower, 3.88 µM
